Series [1] is described as follows: Hydrolytic stability in mouse liver microsomes assessed as esterase-mediated compound hydrolysis by measuring residual substrate activity incubated for 30 mins by LC-HRMS analysis. It is filed as ADME, Microsome. As to conditions: for Stability: microsomes, 0.5 h.
For the next series, the system named is Pseudomonas aeruginosa. As to the kind of experiment: Antibacterial activity against Pseudomonas aeruginosa ATCC 9027 assessed inhibition zone at 1 mg/ml preincubated at room temperature for 1 hr and measured after 24 hrs by agar well-diffusion method. Format: functional. Particulars: time 25.0 hrs. For orientation: A growth-free zone around the sample is the usual read-out of agar diffusion tests.

Consider `COC(=O)c1c(C)cccc1C`, for which the Stability entry in series [1] was “Stable”. In the case of `CC(C)(C)NC(=O)COC(=O)c1ccccc1-c1ccccc1`, the remaining at 0.5 h in series [1] (liver microsomes, read-out: Stability) was 81%. For `COC(=O)c1ccccc1` [METHYL BENZOATE], the Stability result in series [1] is “Unstable”. In turn, GENTAMICIN yielded an inhibition zone (IZ) in the series on Pseudomonas aeruginosa of 22.3 mm.

The values above are taken from ChEMBL document CHEMBL5236637, “Expanding the Chemical Space of Drug-like Passerini Compounds: Can α-Acyloxy Carboxamides Be Considered Hard Drugs?” (ACS Med Chem Lett, 2022).
